Measured values taken from patent US4906467A, “Novel, long-duration treatment for glaucoma” (priority 1988, dated 1990).
“Also recorded” adds a separate entry of the source.

What was measured:
[1] = rabbit, in vivo
[2] = tested on: RABBIT INTRAOCULAR PRESSURE; assay: Effect of topical 12(R)-HETE on rabbit intraocular pressure (pneumotometer); assay type: in vivo; details: for intraocular pressure, difference from baseline (mean ± SEM): n = 6
Experimental: A solution of 12(R)-HETE was prepared by dissolving 50 μg 12(R)-HETE in 1 ml ethanol and diluting to give aliquots containing 0.5 or 1.0 μg 12(R)-HETE in each of several containers. These could be frozen at -78° C. with or without ethanol. Before use, aliquots were warmed, ethanol was removed (if necessary) and sterile phosphate buffered saline (PBS) was added to give a concentration of 0.01 mg 12(R)-HETE/ml PBS. Rabbits were treated by administering 10 to 50 μl of 12(R)-HETE in PBS topically to the each eye of a 1.5 kg rabbit. Control rabbits were treated with PBS alone. Intraocular pressure was measured on a conventional pneumotometer, using a sensor size appropriate for the eye to be measured.
The pressure in each eye of the rabbits was measured several times before beginning the experiment to establish a baseline. Pressure was measured again just after administration of the test compound, then every 30 minutes for 180 minutes, daily for six days, and again on days 9 and 11. […] Table 1 illustrates the mean and standard error of the pressure difference from baseline in six animals treated with 0.5 μg 12(R)-HETE (per eye) compared with three controls, only one of which was tested after the first day.

[3] = Ocular side effects after topical administration in vivo (corneal thickness, clarity, side effects)
intraocular pressure [4] = assay: Intraocular pressure after topical 12(R)-HETE (general statement); assay type: in vivo; details: effective dose
[5] = tested on: ciliary body Na^+ -K^+ -ATPase; details: cited from earlier work
[6] = tested on: corneal epithelial Na^+ -K^+ -ATPase; details: corneal epithelium, in vitro; cited from earlier work
Na^+ -K^+ -ATPases = details: cited from earlier work
intraocular pressure [7] = details: cited from earlier work; for effect on intraocular pressure: in vivo
aqueous humor formation = details: in vivo; cited from earlier work
[8] = in vivo; cited from earlier work

CCCCC/C=C\C[C@@H](O)/C=C/C=C\C/C=C\CCC[14C](=O)O [1-(^14 C)-12(R)-HETE]
eye tissues with highest levels of 12(R)-HETE and its metabolites [1]: The highest levels were found in the cornea, ciliary bodies and trabecular meshwork

CCCCCC=CC[C@@H](O)C=CC=CCC=CCCCC(=O)O [12(R)-HETE, 12(R)-hydroxy-eicosa-5,8,10,14-tetraenoic acid]
intraocular pressure, difference from baseline (mean ± SEM) ([2]; 0 min., 0.5 μg per eye topical): -0.6 ± 0.9 mm Hg | onset and duration of intraocular pressure drop ([2]; 0.5 μg per eye, rabbits, Table 1): short onset, sustained pressure drop | intraocular pressure in test animals compared with control animals ([2]; 0.5 μg per eye, vs PBS controls): significantly below the pressure in control animals at all times after administration of the test drug | intraocular pressure, difference from baseline (mean ± SEM) ([2]; 30 min, 0.5 μg per eye topical): -3.5 ± 1.9 mm Hg | intraocular pressure, difference from baseline (mean ± SEM) ([2]; 60 min, 0.5 μg per eye topical): -5.6 ± 1.4 mm Hg | intraocular pressure, difference from baseline (mean ± SEM) ([2]; 90 min, 0.5 μg per eye topical): -5.6 ± 1.3 mm Hg | intraocular pressure, difference from baseline (mean ± SEM) ([2]; 120 min, 0.5 μg per eye topical): -7.2 ± 1.6 mm Hg | intraocular pressure, difference from baseline (mean ± SEM) ([2]; 150 min, 0.5 μg per eye topical): -4.7 ± 2.8 mm Hg | intraocular pressure, difference from baseline (mean ± SEM) ([2]; 180 min, 0.5 μg per eye topical): -4.1 ± 2.2 mm Hg | intraocular pressure, difference from baseline (mean ± SEM) ([2]; 2 days, 0.5 μg per eye topical): -3.2 ± 2.1 mm Hg | intraocular pressure, difference from baseline (mean ± SEM) ([2]; 3 days, 0.5 μg per eye topical): -4.2 ± 1.2 mm Hg | intraocular pressure, difference from baseline (mean ± SEM) ([2]; 4 days, 0.5 μg per eye topical): -4.2 ± 1.0 mm Hg | intraocular pressure, difference from baseline (mean ± SEM) ([2]; 5 days, 0.5 μg per eye topical): -5.2 ± 2.1 mm Hg | intraocular pressure, difference from baseline (mean ± SEM) ([2]; 6 days, 0.5 μg per eye topical): -6.0 + 1.2 mm Hg | intraocular pressure, difference from baseline (mean ± SEM) ([2]; 9 days, 0.5 μg per eye topical): -7.4 ± 1.7 mm Hg | intraocular pressure, difference from baseline (mean ± SEM) ([2]; 11 days, 0.5 μg per eye topical): -2.9 ± 1.5 mm Hg | intraocular pressure, difference from baseline (mean ± SEM) ([2]; Base (before dosing), 0.5 μg per eye, baseline 25.6 mm): 0.0 ± 1.4 mm Hg | untoward side effects ([3]; doses up to 1 μg per eye): no untoward side effects have been observed | corneal clarity ([3]; topical, in vivo): no loss of clarity | corneal thickness ([3]; topical, in vivo): no increase in corneal thickness | other observable side effects ([3]; topical, in vivo): no other observable side effects | duration of intraocular pressure decrease (intraocular pressure [4]): a decrease in intraocular pressure for a period of several days; also recorded: remains depressed for several days | onset of intraocular pressure drop (intraocular pressure [4]): drops within a few minutes | inhibition of Na+-K+-ATPase [5]: only the R isomer exhibits a significant inhibition of enzyme activity; also recorded: inhibit Na^+ -K^+ -ATPase isolated from the ciliary body | inhibition of Na+-K+-ATPase [6]: only the R isomer exhibits a significant inhibition of enzyme activity; also recorded: inhibit Na^+ -K^+ -ATPase isolated from the ciliary body and the corneal epithelium; also recorded: inhibit Na^+ -K^+ -ATPase in the corneal epithelium in vitro | inhibition of Na+-K+-ATPases (Na^+ -K^+ -ATPases): inhibitor of Na^+ -K^+ -ATPases

CCCCCC=CC[C@H](O)C=CC=CCC=CCCCC(=O)O [12(S)-HETE, reference compound]
inhibition of Na+-K+-ATPase [5]: only the R isomer exhibits a significant inhibition of enzyme activity | inhibition of Na+-K+-ATPase [6]: only the R isomer exhibits a significant inhibition of enzyme activity

CC(=O)OC1CN2CCC1CC2 (stereo not drawn) [Aceclidine]
effectiveness in reducing intraocular pressure compared with pilocarpine (intraocular pressure [7]; glaucoma): approximately as effective as pilocarpine in reducing intraocular pressure

CNC[C@H](O)c1ccc(O)c(O)c1 [Epinephrine]
effect on intraocular pressure (intraocular pressure [7]): reducing the intraocular pressure | effect on production of aqueous humor (aqueous humor formation): decreases production of aqueous humor

CC[C@@H]1C(=O)OC[C@@H]1Cc1cncn1C [Pilocarpine]
effect on intraocular pressure (intraocular pressure [7]): a transitory rise in intraocular pressure, followed by a more persistent fall | effect on pupil size / ciliary body tone / vision [8]: pupillary constriction, spasm of accomodation

CC(C)(C)NC[C@H](O)COc1nsnc1N1CCOCC1 [Timolol]
duration of beneficial effect (intraocular pressure [7]; glaucoma): about 7 hours | effect on intraocular pressure (intraocular pressure [7]): effective in reducing intraocular pressure | effect on production of aqueous humor (aqueous humor formation): appears to act by reducing the production of aqueous humor | side effects [8]: The side effects are minimal, although systemic absorption of the drug can occur, leading to slowing of the heart

CC(=O)Nc1nnc(S(N)(=O)=O)s1 [acetazolamide]
effect on intraocular pressure (intraocular pressure [7]): lowering intraocular pressure in patients with glaucoma | effect on production of aqueous humor (aqueous humor formation): reduces the rate of aqueous humor formation

CNCC(O)c1ccc(OC(=O)C(C)(C)C)c(OC(=O)C(C)(C)C)c1 (stereo not drawn) [dipivalyl epinephrine]
effect on intraocular pressure (intraocular pressure [7]): reducing the intraocular pressure | effect on production of aqueous humor (aqueous humor formation): decreases production of aqueous humor

C[C@@H]1O[C@@H](O[C@H]2C[C@@H](O)[C@]3(CO)[C@H]4[C@H](O)C[C@]5(C)[C@@H](C6=CC(=O)OC6)CC[C@]5(O)[C@@H]4CC[C@]3(O)C2)[C@H](O)[C@H](O)[C@H]1O [ouabain]
inhibition of Na+-K+-ATPases (Na^+ -K^+ -ATPases): inhibit Na^+ -K^+ -ATPases | effect on intraocular pressure (intraocular pressure [7]): decrease intraocular pressure | side effects [8]: severe side effects including keratitis and inflammation of the cornea
